pIC50: −log10 of the molar value. Like-named read-outs stand apart in the source and are kept apart here.
Legend:
[1] = test system: Herpes simplex type 1 virus (HFEM strain); assay: Plaque reduction assay in virus-infected Vero cells (agarose overlay, 4 days); format: cell-based; details: Human alphaherpesvirus 1, 96 h, concentration causing a 50% reduction in the number of virus plaques, 4 days incubation, read-out: PDD50 (the source's name); for pIC50: molar units
Description: (§1) Vero (African Green Monkey Kidney) cells were grown to confluence in 24 well multidishes, each well being 1.6 cm in diameter. The cells were infected with Herpes simplex type 1 virus (HFEM strain) and overlaid with 0.5 mL of 0.9% agarose (w/v) in maintenance medium. Test compounds prepared in maintenance medium in concentrations ranging from […] in half-log dilution steps, were added in 0.5 mL volume. The virus infected cultures were then incubated at 37^0CC for 4 days before fixing in 4% formaldehyde solution and staining with carbolfuchsin.

[2] = Cytotoxicity observed in the plaque reduction assay cultures; format: cell-based; details: african green monkey, vero cells; minimum concentration of test compound which caused cytotoxicity; virus-infected Vero cultures, 4 days; read-out: MTD
Description: as §1

Row | Structure (SMILES) | pIC50 [1] | IC50 [1] | MCC at 96 h [2]
1 | O=C(OC[C@H]1O[C@@H](n2cc(/C=C/Br)c(=O)[nH]c2=O)C[C@@H]1O)OC[C@H]1O[C@@H](n2cc(/C=C/Br)c(=O)[nH]c2=O)C[C@@H]1O [Example 1, bis-[5-(E-2-Bromovinyl)-2'-deoxyuridin-5'-yl] carbonate] | 5.68 | 1.5 µg/mL | 100 µg/mL
2 | CC(=O)O[C@H]1C[C@H](n2cc(/C=C/Br)c(=O)[nH]c2=O)O[C@@H]1COC(=O)OC[C@H]1O[C@@H](n2cc(/C=C/Br)c(=O)n(C(C)=O)c2=O)C[C@@H]1OC(C)=O [Example 2, 3',3'-Q-3-Triacetyl-bis-[5-(E-2-bromovinyl)-2'-deoxyuridin-5'-yl] carbonate] | 4.82 | 12.4 µg/mL | 100 µg/mL
3 | CC(=O)O[C@H]1C[C@H](n2cc(/C=C/Br)c(=O)[nH]c2=O)O[C@@H]1COC(=O)OC[C@H]1O[C@@H](n2cc(/C=C/Br)c(=O)[nH]c2=O)C[C@@H]1OC(C)=O [Example 3, bis-[3'-O-Acetyl-5-(E-2-bromovinyl)-2'-deoxyuridin-5'-yl] carbonate] | 4.96 | 8.5 µg/mL | 100 µg/mL
4 | O=C(O[C@H]1C[C@H](n2cc(/C=C/Br)c(=O)[nH]c2=O)O[C@@H]1CO)O[C@H]1C[C@H](n2cc(/C=C/Br)c(=O)[nH]c2=O)O[C@@H]1CO [Example 4, bis-[5-(E-2-Bromovinyl)-2'-deoxyuridin-3'-yl] carbonate] | 6.30 | 0.34 µg/mL | 100 µg/mL
5 | O=C(n1c(=O)c(/C=C/Br)cn([C@H]2C[C@H](O)[C@@H](CO)O2)c1=O)n1c(=O)c(/C=C/Br)cn([C@H]2C[C@H](O)[C@@H](CO)O2)c1=O [Example 5, 3,3-Carbonyl-bis-[5-(E-2-bromovinyl)-2'-deoxyuridine]] | 7.00 | 0.07 µg/mL | 100 µg/mL
6 | O=C(CCC(=O)OC[C@H]1O[C@@H](n2cc(/C=C/Br)c(=O)[nH]c2=O)C[C@@H]1O)OC[C@H]1O[C@@H](n2cc(/C=C/Br)c(=O)[nH]c2=O)C[C@@H]1O [Example 6, bis-[5-(E-2-Bromovinyl)-2'-deoxyuridin-5'-yl] succinate] | 5.19 | 4.8 µg/mL | 100 µg/mL
7 | O=C(CCCCCCCCC(=O)OC[C@H]1O[C@@H](n2cc(/C=C/Br)c(=O)[nH]c2=O)C[C@@H]1O)OC[C@H]1O[C@@H](n2cc(/C=C/Br)c(=O)[nH]c2=O)C[C@@H]1O [Example 7, bis-[5-(E-2-Bromovinyl)-2'-deoxyuridin-5'-yl] sebacate] | 6.85 | 0.12 µg/mL | 100 µg/mL
